In ChEMBL document CHEMBL1132928 (J Med Chem, 2000):
Calls of active or inactive are those of the source. The rule behind the calls is not given here. Where a SMILES comes first, the peptide text is derived from it. Bridges are numbered along the chain shown (N, C = ends).

Legend:
[1] = target: Glucagon receptor (Rattus norvegicus, UniProt P30082); assay: In vitro receptor binding affinity (95% CL) using rat liver plasma membrane bioassay
[2] = target: Glucagon receptor (Rattus norvegicus) (UniProt P30082); assay: In vitro receptor binding affinity using rat liver plasma membrane bioassay; inactive
[3] = In vitro adenylate cyclase activity using rat liver plasma membrane bioassay. Value is inactive up to 50 uM
[4] = target: Adenylate cyclase type 5 (Rattus norvegicus) (UniProt Q04400); assay: Percent stimulation ofcAMP production was measured in vitro using rat liver plasma membrane bioassay; none; assay type: functional, cell-free
[5] = In vitro adenylate cyclase activity using rat liver plasma membrane bioassay; assay type: tissue-based
[6] = target: Adenylate cyclase type 5 (Rattus norvegicus) (UniProt Q04400); assay: Percent stimulation ofcAMP production was measured in vitro using rat liver plasma membrane bioassay; assay type: functional, cell-free
[7] = pA2 values were obtained from the dose / response plots; assay type: ADME

Glucagon receptor, sequence (P30082 whole entry): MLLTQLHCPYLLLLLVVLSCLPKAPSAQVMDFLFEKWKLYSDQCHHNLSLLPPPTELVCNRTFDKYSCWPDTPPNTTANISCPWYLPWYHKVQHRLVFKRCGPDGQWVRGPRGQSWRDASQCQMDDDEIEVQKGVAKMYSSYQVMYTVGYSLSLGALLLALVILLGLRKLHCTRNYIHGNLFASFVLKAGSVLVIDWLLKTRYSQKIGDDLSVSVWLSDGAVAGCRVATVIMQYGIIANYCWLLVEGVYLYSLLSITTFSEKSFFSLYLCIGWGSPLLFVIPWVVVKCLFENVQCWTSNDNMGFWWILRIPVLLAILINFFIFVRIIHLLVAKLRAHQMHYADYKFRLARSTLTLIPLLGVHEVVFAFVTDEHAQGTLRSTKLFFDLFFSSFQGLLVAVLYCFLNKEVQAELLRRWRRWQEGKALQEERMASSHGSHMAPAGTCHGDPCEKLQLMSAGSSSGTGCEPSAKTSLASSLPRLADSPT
Adenylate cyclase type 5 (Rattus norvegicus), sequence (Q04400 whole entry): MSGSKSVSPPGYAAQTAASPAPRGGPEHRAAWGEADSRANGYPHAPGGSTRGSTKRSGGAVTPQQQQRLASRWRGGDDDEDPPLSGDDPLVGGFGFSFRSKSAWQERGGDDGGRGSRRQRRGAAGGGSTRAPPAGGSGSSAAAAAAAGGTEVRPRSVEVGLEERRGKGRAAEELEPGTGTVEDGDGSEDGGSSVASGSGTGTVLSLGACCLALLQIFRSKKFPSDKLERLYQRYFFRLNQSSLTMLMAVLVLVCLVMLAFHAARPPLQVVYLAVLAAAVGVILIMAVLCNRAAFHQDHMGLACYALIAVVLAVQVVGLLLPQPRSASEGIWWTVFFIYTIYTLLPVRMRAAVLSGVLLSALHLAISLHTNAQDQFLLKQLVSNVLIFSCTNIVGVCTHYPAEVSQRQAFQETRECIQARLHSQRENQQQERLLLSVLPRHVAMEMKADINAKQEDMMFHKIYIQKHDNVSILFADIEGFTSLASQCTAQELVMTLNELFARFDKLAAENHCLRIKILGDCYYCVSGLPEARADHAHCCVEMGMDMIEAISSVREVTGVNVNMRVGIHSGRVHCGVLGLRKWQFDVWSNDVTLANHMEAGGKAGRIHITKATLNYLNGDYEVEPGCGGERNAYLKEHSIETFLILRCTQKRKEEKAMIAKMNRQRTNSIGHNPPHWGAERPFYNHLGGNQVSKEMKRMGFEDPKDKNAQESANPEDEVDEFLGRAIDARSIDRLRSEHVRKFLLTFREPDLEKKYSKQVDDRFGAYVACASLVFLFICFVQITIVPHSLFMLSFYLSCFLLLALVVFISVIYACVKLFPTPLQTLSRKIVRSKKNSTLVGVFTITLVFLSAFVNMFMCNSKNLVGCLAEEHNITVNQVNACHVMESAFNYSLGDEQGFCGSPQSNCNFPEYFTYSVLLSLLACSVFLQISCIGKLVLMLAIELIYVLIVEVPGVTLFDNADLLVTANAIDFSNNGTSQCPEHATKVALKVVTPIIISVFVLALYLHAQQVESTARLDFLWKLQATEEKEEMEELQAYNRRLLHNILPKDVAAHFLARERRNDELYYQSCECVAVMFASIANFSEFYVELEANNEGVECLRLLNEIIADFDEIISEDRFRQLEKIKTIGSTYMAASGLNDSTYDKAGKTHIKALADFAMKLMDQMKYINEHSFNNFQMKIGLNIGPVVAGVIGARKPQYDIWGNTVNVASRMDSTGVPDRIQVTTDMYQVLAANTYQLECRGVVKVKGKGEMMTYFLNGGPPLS
Glucagon receptor (Rattus norvegicus), sequence (P30082 whole entry): as the sequence (P30082 whole entry) above

| IC50 [1] | Molecule | Potency [5] | Max stimulation [6] | other results |
| --- | --- | --- | --- | --- |
| 54 nM | CSCC[C@H](NC(=O)[C@H](CC(C)C)NC(=O)[C@H](Cc1c[nH]c2ccccc12)NC(=O)[C@H](CCC(N)=O)NC(=O)[C@@H](NC(=O)[C@H](Cc1ccccc1)NC(=O)[C@@H]1CCC(=O)NCCCC[C@H](NC(=O)[C@H](CCCCN)NC(=O)[C@H](CO)NC(=O)[C@H](CC(=O)O)NC(=O)[C@H](CC(C)C)NC(=O)[C@H](Cc2ccc(O)cc2)NC(=O)[C@H](CCCCN)NC(=O)[C@H](CO)NC(=O)[C@H](Cc2ccc(O)cc2)NC(=O)[C@H](CC(=O)O)NC(=O)[C@H](CO)NC(=O)[C@@H](NC(=O)[C@H](Cc2ccccc2)NC(=O)[C@@H](NC(=O)CNC(=O)[C@H](CCC(N)=O)NC(=O)[C@H](CO)NC(=O)[C@@H](N)Cc2c[nH]cn2)[C@@H](C)O)[C@@H](C)O)C(=O)N[C@@H](C)C(=O)N[C@@H](CCC(N)=O)C(=O)N1)C(C)C)C(=O)N[C@@H](CC(N)=O)C(=O)N[C@H](C(N)=O)[C@@H](C)O | – | – | EC50 [1]: 320 nM |
| – | CSCC[C@H](NC(=O)[C@H](CC(C)C)NC(=O)[C@H](Cc1c[nH]c2ccccc12)NC(=O)[C@H](CCC(N)=O)NC(=O)[C@@H](NC(=O)[C@@H](Cc1ccccc1)NC(=O)[C@@H]1CCC(=O)NCCCC[C@H](NC(=O)[C@H](CO)NC(=O)[C@@H](CC(=O)O)NC(=O)[C@@H](CC(C)C)NC(=O)[C@H](Cc2ccc(O)cc2)NC(=O)[C@H]2CCCCNC(=O)C[C@H](NC(=O)[C@H](CO)NC(=O)[C@H](NC(=O)[C@@H](Cc3ccccc3)NC(=O)[C@H](NC(=O)CNC(=O)[C@@H](CCC(N)=O)NC(=O)[C@@H](CO)NC(=O)[C@H](N)Cc3c[nH]cn3)[C@H](C)O)[C@H](C)O)C(=O)N[C@@H](Cc3ccc(O)cc3)C(=O)N[C@H](CO)C(=O)N2)C(=O)N[C@@H](CCCCN)C(=O)N[C@H](C)C(=O)N[C@@H](CCC(N)=O)C(=O)N1)C(C)C)C(=O)N[C@@H](CC(N)=O)C(=O)N[C@H](C(N)=O)[C@@H](C)O | – | – | IA [2]: inactive; Potency [3]: Inactive up to 50 uM; Max stimulation [4]: inactive |
| – | GLUCAGON | 100% | 100% | – |
| 250 nM | CSCC[C@H](NC(=O)[C@H](CC(C)C)NC(=O)[C@H](Cc1c[nH]c2ccccc12)NC(=O)[C@H](CCC(N)=O)NC(=O)[C@@H](NC(=O)[C@H](Cc1ccccc1)NC(=O)[C@H](CCC(=O)O)NC(=O)[C@H](CCC(N)=O)NC(=O)[C@H](C)NC(=O)[C@H](CCCCN)NC(=O)[C@H](CCCCN)NC(=O)[C@H](CO)NC(=O)[C@H](CC(=O)O)NC(=O)[C@H](CC(C)C)NC(=O)[C@H](Cc1ccc(O)cc1)NC(=O)[C@@H]1CCCCNC(=O)C[C@H](NC(=O)[C@H](CO)NC(=O)[C@@H](NC(=O)[C@H](Cc2ccccc2)NC(=O)[C@@H](NC(=O)CNC(=O)[C@H](CCC(N)=O)NC(=O)[C@H](CO)NC(=O)[C@@H](N)Cc2cnc[nH]2)[C@@H](C)O)[C@@H](C)O)C(=O)N[C@@H](Cc2ccc(O)cc2)C(=O)N[C@@H](CO)C(=O)N1)C(C)C)C(=O)N[C@@H](CC(N)=O)C(=O)N[C@H](C(N)=O)[C@@H](C)O (H-HSQGTFTSDYSKYLDSKKAQEFVQWLMNT-NH2; lactam 9-12) | – | – | pA2 [7]: 6.3 |
| – | CSCC[C@@H](NC(=O)[C@@H](CC(C)C)NC(=O)[C@@H](Cc1c[nH]c2ccccc12)NC(=O)[C@@H](CCC(N)=O)NC(=O)[C@H](NC(=O)[C@H](Cc1ccccc1)NC(=O)[C@H]1CCC(=O)NCCCC[C@H](NC(=O)[C@H](CCCCN)NC(=O)[C@@H](CO)NC(=O)[C@@H](CC(=O)O)NC(=O)[C@@H](CC(C)C)NC(=O)[C@@H](Cc2ccc(O)cc2)NC(=O)[C@@H](CCCCN)NC(=O)[C@@H](CO)NC(=O)[C@@H](Cc2ccc(O)cc2)NC(=O)[C@@H](CC(=O)O)NC(=O)[C@@H](CO)NC(=O)[C@H](NC(=O)[C@@H](Cc2ccccc2)NC(=O)[C@H](NC(=O)CNC(=O)[C@@H](CCC(N)=O)NC(=O)[C@@H](CO)NC(=O)[C@H](N)Cc2c[nH]cn2)[C@H](C)O)[C@H](C)O)C(=O)N[C@@H](C)C(=O)N[C@H](CCC(N)=O)C(=O)N1)C(C)C)C(=O)N[C@H](CC(N)=O)C(=O)N[C@@H](C(N)=O)[C@H](C)O | 1.6% | 60% | – |
